# Counter-ions that a name gives are not always drawn.
# Tests used:
# [1] = tested on: NCI-H292 lung cancer cells; assay: FDA drug screening, complete media vs cholesterol-free media without statin (TABLE 1); assay type: cell-based, human
# [2] = tested on: NCI-H292 lung cancer cells; assay: FDA drug screening, complete media vs cholesterol-free media with simvastatin (TABLE 2); assay type: cell-based, human; details: for Cholesterol-free media + simvastatin (0.04 μM) / Complete Media: NCI-H292 cells
# [3] = Complete minus Cholesterol-free, >0 enhanced anti-cancer activity, about 0 neutral, <0 antagonist
# [4] = NCI-H292 cells, cholesterol-free media without statin
# [5] = NCI-H292 cells, cholesterol-free media without statin, FDA drug library screen
# [6] = NCI-H292 cells, complete media, FDA drug library screen
# [7] = complete vs cholesterol-free media, >0 enhanced anti-cancer activity, about 0 neutral, <0 antagonist
# [8] = drug in cholesterol-free media with simvastatin 0.04 μM
# [9] = complete media vs cholesterol-free media + simvastatin (0.04 μM), >0 enhanced anti-cancer activity, about 0 neutral, <0 antagonist
# [10] = Complete minus Cholesterol-free, greater than 0 enhanced anti-cancer activity, about 0 neutral, below 0 antagonist
# [11] = NCI-H292 cells, FDA drug library screen, cholesterol-free media without statin
# [12] = NCI-H292 cells, FDA drug library screen, complete media
# [13] = FDA library drug in cholesterol-free media with simvastatin 0.04 μM
# [14] = FDA library drug in complete media
# [15] = complete vs cholesterol-free media, greater than 0 enhanced anti-cancer activity, about 0 neutral, below 0 antagonists
# [16] = NCI-H292 cells in cholesterol-free media without statin
# [17] = NCI-H292 cells in complete media
# [18] = FDA drug library screen, cholesterol-free media with simvastatin 0.04 μM
# [19] = FDA drug library screen, complete media
# [20] = Complete minus Cholesterol-free, greater than 0 enhanced anti-cancer activity, about 0 neutral, below 0 antagonists
# [21] = cholesterol-free media with simvastatin 0.04 μM, cell growth value in FDA drug screen
# [22] = complete media, cell growth value in FDA drug screen
# [23] = complete media minus cholesterol-free media + simvastatin, >0 enhanced anti-cancer activity, about 0 neutral, <0 antagonist
smiles,measurement,setting,value
CCOC(=O)N[C@@H]1CC[C@@H]2[C@@H](C1)C[C@H]1C(=O)O[C@H](C)[C@H]1[C@H]2/C=C/c1ccc(-c2cccc(F)c2)cn1 [Vorapaxar],Difference,[1]; [3],−0.20
same,Cholesterol-free,[1]; [4],1.186
same,Complete,"[1]; NCI-H292 cells, complete media",0.984
same,Cholesterol-free media + simvastatin (0.04 μM),"[2]; cholesterol-free media with simvastatin 0.04 μM, FDA drug library screen (TABLE 2)",1.048
same,Complete Media,"[2]; complete media, FDA drug library screen (TABLE 2)",1.005
same,Difference,"[2]; complete media minus cholesterol-free media + simvastatin (0.04 μM), >0 enhanced anti-cancer activity, about 0 neutral, <0 antagonist",−0.04
C[C@@H](c1ncncc1F)[C@](O)(Cn1cncn1)c1ccc(F)cc1F [Voriconazole],Cholesterol-free,[1]; [5],0.6824
same,Complete,[1]; [6],0.9897
same,Difference,[1]; [7],0.31
same,Cholesterol-free media + simvastatin (0.04 μM),[2]; [8],1.08
same,Complete Media,[2]; drug in complete media,0.8559
same,Difference,[2]; [9],−0.22
O=C(CCCCCCC(=O)Nc1ccccc1)NO [Vorinostat],Difference,[1]; [10],−0.17
same,Cholesterol-free,[1]; [11],0.4861
same,Complete,[1]; [12],0.3154
same,Cholesterol-free media + simvastatin (0.04 μM),[2]; [8],0.872
same,Complete Media,[2]; drug in complete media,0.635
same,Difference,[2]; [9],−0.24
Cc1ccc(Sc2ccccc2N2CCNCC2)c(C)c1 [Vortioxetine (hydrobromide)],Difference,[1]; [3],−0.30
same,Cholesterol-free,[1]; [4],0.7215
same,Complete,"[1]; NCI-H292 cells, complete media",0.4184
same,Cholesterol-free media + simvastatin (0.04 μM),[2]; [13],1.363
same,Complete Media,[2]; [14],1.083
same,Difference,[2]; [9],−0.28
Cc1ccc(Sc2ccccc2N2CCNCC2)c(C)c1 [Vortioxetine],Cholesterol-free,[1]; [5],0.5855
same,Complete,[1]; [6],0.993
same,Difference,[1]; [7],0.41
same,Cholesterol-free media + simvastatin (0.04 μM),[2]; [13],1.222
same,Complete Media,[2]; [14],0.843
same,Difference,[2]; [9],−0.38
CC(C)n1nccc1-c1ncccc1COc1cccc(O)c1C=O [Voxelotor],Cholesterol-free,[1]; [4],1.146
same,Complete,"[1]; NCI-H292 cells, complete media",0.7013
same,Difference,[1]; [15],−0.44
same,Cholesterol-free media + simvastatin (0.04 μM),[2]; [13],1.853
same,Complete Media,[2]; [14],1.475
same,Difference,[2]; [9],−0.38
OC[C@@H](O)[C@H](O)[C@@H](O)CO [Xylitol],Difference,[1]; [3],−0.26
same,Cholesterol-free,[1]; [4],1.384
same,Complete,"[1]; NCI-H292 cells, complete media",1.123
same,Cholesterol-free media + simvastatin (0.04 μM),[2]; [8],1.234
same,Complete Media,[2]; drug in complete media,1.073
same,Difference,[2]; [9],−0.16
Cc1cc(C(C)(C)C)cc(C)c1CC1=NCCN1 [Xylometazoline (hydrochloride)],Difference,"[1]; Complete minus Cholesterol-free, […]",−0.59
same,Cholesterol-free,[1]; [16],1.406
same,Complete,[1]; [17],0.8153
same,Cholesterol-free media + simvastatin (0.04 μM),[2]; [13],1.159
same,Complete Media,[2]; [14],0.7803
same,Difference,"[2]; complete media vs cholesterol-free media + simvastatin (0.04 μM), […]",−0.38
O=C[C@H](O)[C@@H](O)[C@H](O)CO [Xylose],Cholesterol-free,[1]; [4],1.238
same,Complete,"[1]; NCI-H292 cells, complete media",0.9044
same,Difference,[1]; [15],−0.33
same,Cholesterol-free media + simvastatin (0.04 μM),[2]; [18],1.188
same,Complete Media,[2]; [19],1.083
same,Difference,[2]; [9],−0.11
COC(=O)[C@@H]1[C@H]2C[C@H]3c4[nH]c5ccccc5c4CCN3C[C@@H]2CC[C@@H]1O [Yohimbine (Hydrochloride)],Difference,[1]; [20],−0.74
same,Cholesterol-free,[1]; [16],1.558
same,Complete,[1]; [17],0.818
same,Cholesterol-free media + simvastatin (0.04 μM),[2]; [21],1.051
same,Complete Media,[2]; [22],1.067
same,Difference,[2]; [23],0.02
COc1cc(C(=O)NS(=O)(=O)c2ccccc2C)ccc1Cc1cn(C)c2ccc(NC(=O)OC3CCCC3)cc12 [Zafirlukast],Difference,[1]; [3],0.05
same,Cholesterol-free,[1]; [5],0.8473
same,Complete,[1]; [6],0.9001
same,Cholesterol-free media + simvastatin (0.04 μM),[2]; [18],1.598
same,Complete Media,[2]; [19],1.505
same,Difference,[2]; [9],−0.09
Nc1ccn([C@H]2CC[C@@H](CO)O2)c(=O)n1 [Zalcitabine],Difference,[1]; [3],−0.22
same,Cholesterol-free,[1]; [4],1.156
same,Complete,"[1]; NCI-H292 cells, complete media",0.9405
same,Cholesterol-free media + simvastatin (0.04 μM),[2]; [21],1.825
same,Complete Media,[2]; [22],1.89
same,Difference,[2]; [23],0.06
CC(C(=O)O)c1ccc2c(c1)CC(=O)c1ccccc1S2 (stereo not drawn) [Zaltoprofen],Difference,[1]; [10],−0.13
same,Cholesterol-free,[1]; [11],1.151
same,Complete,[1]; [12],1.025
same,Cholesterol-free media + simvastatin (0.04 μM),[2]; [13],1.283
same,Complete Media,[2]; [14],0.7256
same,Difference,[2]; [9],−0.56
CC(=O)N[C@H]1[C@H]([C@H](O)[C@H](O)CO)OC(C(=O)O)=C[C@@H]1N=C(N)N [Zanamivir],Difference,[1]; [20],−0.85
same,Cholesterol-free,[1]; [16],1.947
same,Complete,[1]; [17],1.097
same,Cholesterol-free media + simvastatin (0.04 μM),[2]; [8],1.295
same,Complete Media,[2]; drug in complete media,1.107
same,Difference,[2]; [9],−0.19
